Measured values taken from US7968526B2, “Antisense oligonucleotides directed to ribonucleotide reductase R2 and uses thereof in the treatment of cancer” (Lorus Therapeutics Inc., priority 2003, dated 2011).

Experiment: Pharmacokinetics in the rat (plasma, CE method)
Assay type: in vivo
Method: The toxicokinetics and tissue distribution of SEQ ID NO:1 (and related oligonucleotide metabolites obtained from exonuclease-mediated chain shortening) were determined in rats and monkeys. In addition to investigating the pharmacokinetics and tissue distribution of SEQ ID NO:1, the purpose of the studies was to correlate adverse effects in the animal studies to the concentrations of SEQ ID NO:1 (and metabolites) in tissue and blood. A capillary electrophoresis (CE) method was used to measure the concentrations of SEQ ID NO:1 (and metabolites) in plasma and tissues.
In a pharmacokinetic study, groups of male rats were administered one or two bolus i.v. injections (tail vein) of SEQ ID NO:1 at a dose of 50 mg/kg (295 mg/m^2) and intravenously infused (abdominal vena cava) for up to 48 h at a dose of 50 mg/kg/day (295 mg/m^2/day). Blood samples were collected into EDTA-containing tubes from subsets of animals in each group at various sampling times up to 56 h after initiation of infusion or bolus injection. Parent SEQ ID NO:1 concentrations were measured in plasma by a validated CE method.

[1] = 50 mg/kg/day continuous intravenous infusion

With “5′-GGCTAAATCGCTCCACCAAG-3′ (all phosphorothioate, sugars by position and methylation of C not given here) [SEQ ID NO: 1, fully phosphorothioated antisense oligonucleotide that hybridizes to the coding region of R2 mRNA]” the “AUC(0-24)” value [1] was 208 µg·h/mL, the “Cl (plasma clearance)” value [1] was 3.6 mL/min/kg and the “Css (mean plasma steady state concentration)” value [1] was 9.62 µg/mL. For the same substance, the “Time after infusion initiation at which steady state level was achieved” value [1] was “approximately 3 hr”, the “AUC(0-24)” value (50 mg/kg/day i.v. bolus) was 369 µg·h/mL and the “AUC(0-inf)” value (50 mg/kg/day i.v. bolus) was 650 µg·h/mL. For the same substance, the “AUC(0-t)” value (50 mg/kg/day i.v. bolus) was 637 µg·h/mL, the “Cl (plasma clearance)” value (50 mg/kg/day i.v. bolus) was 2.57 mL/min/kg and the Kel (50 mg/kg/day i.v. bolus) was 0.5109 h⁻¹. For the same substance, the “T1/2 (plasma half-life)” value (50 mg/kg/day i.v. bolus) was 81.6 min, the Tmax (50 mg/kg/day i.v. bolus) was 4.98 min and the Cmax (50 mg/kg/day i.v. bolus, after second bolus injection) was 679 µg/mL.
